# Assay results from US6800481B1, “Stable macroscopic membranes formed by self-assembly of amphiphilic peptides and uses therefor” (priority 1992, dated 2004).
# Several values for one entry are separate records, joined by “and”; a condition that tells them apart may be missing. Identical values can stand only once. Residues, ends and D or L forms follow the SMILES beside them.
# Legend:
# physchem = type: physicochemical
# Protocol: EAK16 peptide stock solutions were prepared at a concentration of approximately 0.57 mM (1 mg/ml) in water. The molecular weight of EAK16 is 1,760. […] The concentration was determined by the ninhydrin methods using internal controls.
# [1] = type: physicochemical
# Protocol: Once formed, the macroscopic membranes are stable in a variety of aqueous solutions, including water, phosphate-buffered saline (PBS), tissue culture medium, serum, and also in ethanol, and can be transferred to and stored in any of these liquids. […] The membranes can be transferred from one solution to another using a solid support such as a spatula. They can be broken by cutting, tearing or shearing.
# The stability of the membranes was also tested under a range of temperature, pH and chemical conditions. For these experiments, membranes were formed by adding 20 μl of a 0.5 mM stock solution of EAK16 to 0.5 ml of PBS, and transferred into water or other solutions at test conditions.
# The membranes could be frozen and thawed, although care was required in handling the frozen membranes which were brittle. In boiling water, the membranes tended to be sheared by the mechanical agitation. […] (FIGS. 9A and 9B). […] Such strong thermal stability of the defined β-sheet structure of EAK16 is unusual for a small peptide. For example, these findings contrast with the α-helix-forming sixteen residue (Ala, Glu, Lys)-containing peptides studied previously (Marqusee and Baldwin, 1987).
# The EAK16 membranes were also tested in water at pH 1.5, 3, 7 and 11 at room temperature for at least a week and at 95° C. for about 4 hours. The membranes were unaffected at these pH. […] It is possible that the complementary interactions between the Glu and Lys side-chains are strong even when the carboxyl groups of the Glu residues have been protonated at pH 1.5 and 3, due to their ability to form hydrogen bonds even when protonated.
# The EAK16 membranes were further tested for resistance to chemical denaturation under the following conditions: 1% and 10% sodium dodecyl sulfate (SDS); 1, 2, 3, 4, 5, 6 and 7 M guanidine-HCl; and 1, 2, 3, 4, 5, 6, 7 and 8 M urea. […] The membranes were also tested at 95° C. for 4 hours in 10% SDS; 7 M guanidine-HCl; and at 8 M urea.
# [2] = system: nerve growth factor-differentiated rat PC12 cells; type: cell-based
# Text: The membranes also appear to be non-cytotoxic. The EAK16 peptide formed macroscopic membranes when added to a tissue culture of nerve growth factor-differentiated rat PC12 cells.
# 3T3 fibroblast cells = test: Cell attachment to biopolymer sheets, with serum or serum-free + cyclohexamide (Table 5); type: cell-based, mouse; design: key: ++++: strong attachment; +++: moderate attachment; ++: weak attachment; +/−: little or no attachment
# Protocol: 3T3 fibroblast cells were introduced to membranes of RAD16 and EAK16 in normal serum-containing medium or in serum-free medium containing 30 μg/ml cyclohexamide (cells used for this condition were pretreated in this medium for 2 hours before plating). Cells were allowed to attach to the membranes for 30 minutes, 1 and 8 hours at 37° C. The attached cells were shaken for 10 minutes on a rotary rocker at 60 r.p.m., then scored under phase contrast microscopy. The decrease in cells attached to the membrane in the serum-free condition reflects cell loss due to serum deprivation.
# [3] = Nucleotide hydrolysis activity; type: biochemical
# Text: In addition, the ability of small peptides such as EAK16 to self-assemble into membranes may be useful in origin of life studies related to cell membranes and cellular compartmentalization. […] This activity is probably due to the ability of lysine and glutamic acid side-chains to perform general acid and base catalysis.
# [4] = Ions tested for effectiveness at inducing membrane formation; conditions of membrane formation; type: physicochemical
# Protocol: Various metal cations were tested for effectiveness at inducing membrane formation from EAK16. […] The order of effectiveness of the monovalent cations appears to be Li^+>Na^+>K^+>Cs^+. Cs^+ produces the least amount of membranes and in addition, yields nonmembranous precipitates. The effectiveness of the monovalent cations appears to correlate inversely with the crystal radii of the ions: Li^+ (0.6 Å), Na^+ (0.95 Å), K^+ (1.33 Å), and Cs^+ (1.69 Å) (Pauling, 1960). A correlation is also seen with the hydrated radii of the ions: Li^+ (3.4 Å), Na^+ (2.76 Å), K^+ (2.32 Å), and Cs^+ (2.28 Å), and with the order of enthalpies of the monovalent cations (Pauling, 1960). It is not known at present if the monovalent metal cations act as a catalyst or if they are incorporated into the membrane. […] Thus, membrane formation appears to be independent of salt concentration over this wide range. Salt concentrations of less than 5 mM may also induce membrane formation, but at a slower rate. The initial concentration of the peptide is a significant factor in the size and thickness of the membrane formed. In general, the higher the peptide concentration, the higher the extent of membrane formation. Membranes can form from initial peptide concentrations as low as 0.5 mM or 1 mg/ml. However, membranes formed at higher initial peptide concentrations (about 10 mg/ml) are thicker and thus, likely to be stronger. Therefore, it is preferable when producing the membranes to add peptide to a salt solution, rather than to add salt to a peptide solution. Formation of the membranes is very fast, on the order of a few minutes, and seems to be irreversible (see below). The process is unaffected by pH≦12 (the peptides tend to precipitate out at pH above 12), and by temperature. The membranes can form at temperatures in the range of 4 to 90° C. Formation of the membranes is inhibited by the presence of divalent metal cations at concentrations equal to or greater than 100 μM, which promote unstructured aggregation rather than membrane formation, and by sodium dodecyl sulfate (SDS) at a concentration of at least 0.1%.
smiles,measurement,setting,value
CC(=O)N[C@@H](C)C(=O)N[C@@H](CCC(=O)O)C(=O)N[C@@H](C)C(=O)N[C@@H](CCC(=O)O)C(=O)N[C@@H](C)C(=O)N[C@@H](CCCCN)C(=O)N[C@@H](C)C(=O)N[C@@H](CCCCN)C(=O)N[C@@H](C)C(=O)N[C@@H](CCC(=O)O)C(=O)N[C@@H](C)C(=O)N[C@@H](CCC(=O)O)C(=O)N[C@@H](C)C(=O)N[C@@H](CCCCN)C(=O)N[C@@H](C)C(=O)N[C@@H](CCCCN)C(N)=O [EAK16] (Ac-AEAEAKAKAEAEAKAK-NH2),solubility,physchem; maximal solubility in water,3000 µM and ~5000 µg/mL
same,solubility,physchem; solubility in 23% actonitrile,≤ 6000 µM and ~10000 µg/mL
same,stability of membranes and filaments in liquids,[1],"stable in aqueous solution, in serum, and in ethanol"
same,stability of membranes in water or PBS,[1],stable in water or PBS for at least a week
same,stability of membranes in water over temperature,[1],"stable in water over a wide range of temperatures: up to 95° and at 4°, −20°, and −80 °C"
same,resistance of membranes to chemical denaturation at room temperature,"[1]; 1% and 10% SDS, 1-7 M guanidine-HCl, 1-8 M urea, room temperature at least 4 days",remained stable
same,membranes in 8 M urea at 95° C.,"[1]; 95° C. for 4 hours, 8 M urea",dissolved
same,membranes in SDS and 7 M guanidine-HCl at 95° C.,"[1]; 95° C. for 4 hours, 10% SDS, 7 M guanidine-HCl",remained intact
same,pH at which membranes and filaments are stable,[1]; alkaline and acidic pH,1.5-11
same,effect on appearance or rate of growth of the cells,[2],did not affect the appearance or rate of growth of the cells
same,cell attachment,"3T3 fibroblast cells; 3T3, 30 min, medium with serum, no cyclohexamide",++++
same,cell attachment,"3T3 fibroblast cells; 3T3, 30 min, serum-free medium, + cyclohexamide",++++
same,cell attachment,"3T3 fibroblast cells; 3T3, 60 min, medium with serum, no cyclohexamide",++++
same,cell attachment,"3T3 fibroblast cells; 3T3, 60 min, serum-free medium, + cyclohexamide",++++
same,cell attachment,"3T3 fibroblast cells; 3T3, 8 hrs, medium with serum, no cyclohexamide",++++
same,cell attachment,"3T3 fibroblast cells; 3T3, 8 hrs, serum-free medium, + cyclohexamide",++
same,nucleotide hydrolysis activity,[3],partial nucleotide hydrolysis activity
same,effect of divalent cations on membrane formation,[4],divalent cations primarily induce unstructured aggregates
same,effect of monovalent metal cations on membrane formation,[4],monovalent metal cations induce membrane formation
same,order of effectiveness of the monovalent cations,[4],Li^+>Na^+>K^+>Cs^+
same,effect of anions and organic ions on membrane formation,"[4]; acetate, Cl^−, SO4^−2, PO4^−2, NH4^+ and Tris-Cl",not found to induce membrane formation
